Results published in the supplement of paper PMC10307832.

Legend:
Assay in all cases: relative viability (nuclei count vs DMSO), 5 days (fraction); higher = more cells survive
IMD-0354 + Olaparib = compound: O=C(Nc1cc(C(F)(F)F)cc(C(F)(F)F)c1)c1cc(Cl)ccc1O [IMD-0354] + O=C(c1cc(Cc2n[nH]c(=O)c3ccccc23)ccc1F)N1CCN(C(=O)C2CC2)CC1 [Olaparib] (partner 8 µM)
Method in brief: (§1)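 For relative viability, nuclei counts in treated wells were divided by those in vehicle wells. Lung cancer cell lines had been pin-tool dosed in 1536-well plates the day after seeding and cultured for 5 days, then fixed and stained in one step (final 0.05% Triton X-100, 1% formaldehyde, 1 ug/ml Hoechst) and imaged at 4×. Doses were one drug alone or a fixed anchor-drug dose plus five library-drug doses (not always all listed) in √10 steps, and values are duplicate-plate medians.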

IMD-0354 + Decitabine = compound: O=C(Nc1cc(C(F)(F)F)cc(C(F)(F)F)c1)c1cc(Cl)ccc1O [IMD-0354] + Nc1ncn([C@H]2C[C@H](O)[C@@H](CO)O2)c(=O)n1 [Decitabine] (partner 2 µM)
Method in brief: as §1

IMD-0354 + OSI-027 = compound: O=C(Nc1cc(C(F)(F)F)cc(C(F)(F)F)c1)c1cc(Cl)ccc1O [IMD-0354] + COc1cccc2cc(-c3nc([C@H]4CC[C@H](C(=O)O)CC4)n4ncnc(N)c34)[nH]c12 [OSI-027] (partner 0.5 µM)
Method in brief: as §1

CX-5461 + Pemetrexed = compound: Cc1cnc(CNC(=O)c2c(=O)c3ccc(N4CCCN(C)CC4)nc3n3c2sc2ccccc23)cn1 [CX-5461] + Nc1nc2[nH]cc(CCc3ccc(C(=O)N[C@@H](CCC(=O)O)C(=O)O)cc3)c2c(=O)[nH]1 [Pemetrexed] (partner 0.2 µM)
Method in brief: as §1

Cell Line	relative viability (IMD-0354 + Olaparib; first compound 0.04 µM)	relative viability (IMD-0354 + Olaparib; first compound 0.1265 µM)	relative viability (IMD-0354 + Olaparib; first compound 0.4 µM)	relative viability (IMD-0354 + Olaparib; first compound 1.265 µM)	relative viability (IMD-0354 + Olaparib; first compound 4 µM)	relative viability (IMD-0354 + Decitabine; first compound 0.04 µM)	relative viability (IMD-0354 + Decitabine; first compound 0.1265 µM)	relative viability (IMD-0354 + Decitabine; first compound 0.4 µM)	relative viability (IMD-0354 + Decitabine; first compound 1.265 µM)	relative viability (IMD-0354 + Decitabine; first compound 4 µM)	relative viability (IMD-0354 + OSI-027; first compound 0.04 µM)	relative viability (IMD-0354 + OSI-027; first compound 0.1265 µM)	relative viability (IMD-0354 + OSI-027; first compound 0.4 µM)	relative viability (IMD-0354 + OSI-027; first compound 1.265 µM)	relative viability (IMD-0354 + OSI-027; first compound 4 µM)	relative viability (CX-5461 + Pemetrexed; first compound 0.01 µM)	relative viability (CX-5461 + Pemetrexed; first compound 0.03162 µM)	relative viability (CX-5461 + Pemetrexed; first compound 0.1 µM)	relative viability (CX-5461 + Pemetrexed; first compound 0.3162 µM)	relative viability (CX-5461 + Pemetrexed; first compound 1 µM)
SK-LU-1	0.481	0.395	0.325	0.265	0.205	0.775	0.657	0.441	0.264	0.328	0.32	0.305	0.277	0.181	0.193	1.06	1.12	0.852	0.965	0.651
LU99A	0.196	0.269	0.257	0.176	0.179	0.565	0.885	0.539	0.617	0.293	0.351	0.286	0.246	0.259	0.196	0.197	0.175	0.159	0.188	0.179
NCI-H1355	0.663	0.769	0.452	0.198	0.175	0.397	0.373	0.327	0.274	0.21	0.382	0.45	0.372	0.258	0.234	1.08	1.08	1.03	1.02	0.853
HCC-78	0.814	0.744	0.649	1.04	0.291	0.714	0.619	0.583	0.6	0.426	0.321	0.363	0.314	0.296	0.283	0.896	0.939	0.904	0.907	0.862
NCI-H1563											0.775	0.769	0.66	0.297	0.413	0.81	0.747	0.908	0.687	0.651
HCC-15	0.576	0.69	0.474	0.317	0.157	0.68	0.614	0.292	0.108	0.161	0.656	0.615	0.366	0.164	0.131	0.232	0.232	0.215	0.233	0.204
EKVX	0.964	0.755		0.634	0.204	0.294	0.316		0.36	0.155	0.771	0.685	0.629	0.631	0.19	0.457	0.394	0.437		0.322
NCI-H2087	0.517	0.457	0.207	0.0984	0.122	0.258	0.276	0.188	0.111	0.0967	0.496	0.646	0.189	0.119	0.112	0.689	0.657	0.684	0.712	0.654
